ChEMBL document CHEMBL4371004, “A-C Estrogens as Potent and Selective Estrogen Receptor-Beta Agonists (SERBAs) to Enhance Memory Consolidation under Low-Estrogen Conditions” (J Med Chem, 2018)
Activity calls are given as the source filed them. No cut-off for these calls is given here.

Assays:
Cytochrome P450 1A2 = target: T1, Cytochrome P450 1A2 (Homo sapiens, UniProt P05177); test: Inhibition of human recombinant CYP1A2 up to 100 uM preincubated for 10 mins followed by NADPH addition and measured after 10 to 30 mins by P450-Glo luminescence assay; assay type: ADME; details: recombinant enzyme
T1 sequence (P05177 whole entry): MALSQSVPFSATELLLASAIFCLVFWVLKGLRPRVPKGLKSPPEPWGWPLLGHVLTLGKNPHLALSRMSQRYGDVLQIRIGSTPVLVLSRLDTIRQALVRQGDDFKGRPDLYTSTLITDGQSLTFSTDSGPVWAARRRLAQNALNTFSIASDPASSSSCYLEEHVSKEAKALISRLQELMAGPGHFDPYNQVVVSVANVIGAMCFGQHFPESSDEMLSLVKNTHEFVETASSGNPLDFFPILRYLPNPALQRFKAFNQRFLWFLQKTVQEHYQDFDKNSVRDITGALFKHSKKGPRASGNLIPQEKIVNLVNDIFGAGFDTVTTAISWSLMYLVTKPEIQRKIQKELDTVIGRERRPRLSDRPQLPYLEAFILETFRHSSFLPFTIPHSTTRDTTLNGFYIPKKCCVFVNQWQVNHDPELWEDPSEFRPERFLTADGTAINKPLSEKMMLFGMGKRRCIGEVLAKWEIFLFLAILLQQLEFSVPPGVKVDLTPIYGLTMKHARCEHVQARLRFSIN

Mus musculus [1] = test: Memory enhancement effect in C57BL/6 mouse assessed as time spent with novel object at 1 ng administered as dorsal hippocampal infusion by novel object recognition test; assay type: functional
[2] = target: T2, Peroxisome proliferator-activated receptor delta (Homo sapiens) (UniProt Q03181); test: Agonist activity at GAL4 DNA binding domain fused PPARdelta (unknown origin) at 0.25 to 25 uM by FRET-based assay
T2 sequence (whole entry): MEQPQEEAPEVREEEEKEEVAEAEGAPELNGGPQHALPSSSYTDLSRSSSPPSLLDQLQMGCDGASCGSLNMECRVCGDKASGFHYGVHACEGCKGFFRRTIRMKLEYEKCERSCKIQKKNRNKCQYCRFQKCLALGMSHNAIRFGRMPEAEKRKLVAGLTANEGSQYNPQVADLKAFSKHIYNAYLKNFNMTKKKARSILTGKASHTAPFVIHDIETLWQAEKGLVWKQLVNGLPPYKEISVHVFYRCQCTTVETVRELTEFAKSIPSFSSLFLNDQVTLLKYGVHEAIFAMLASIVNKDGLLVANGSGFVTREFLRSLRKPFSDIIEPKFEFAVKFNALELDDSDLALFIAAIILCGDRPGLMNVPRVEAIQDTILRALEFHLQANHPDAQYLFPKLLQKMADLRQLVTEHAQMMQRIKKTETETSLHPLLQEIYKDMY

[3] = target: T3, Glucocorticoid receptor (Homo sapiens) (UniProt P04150); test: Agonist activity at GAL4 DNA binding domain fused glucocorticoid receptor ligand binding domain (unknown origin) at 0.25 to 25 uM by FRET-based assay
T3 sequence (whole entry): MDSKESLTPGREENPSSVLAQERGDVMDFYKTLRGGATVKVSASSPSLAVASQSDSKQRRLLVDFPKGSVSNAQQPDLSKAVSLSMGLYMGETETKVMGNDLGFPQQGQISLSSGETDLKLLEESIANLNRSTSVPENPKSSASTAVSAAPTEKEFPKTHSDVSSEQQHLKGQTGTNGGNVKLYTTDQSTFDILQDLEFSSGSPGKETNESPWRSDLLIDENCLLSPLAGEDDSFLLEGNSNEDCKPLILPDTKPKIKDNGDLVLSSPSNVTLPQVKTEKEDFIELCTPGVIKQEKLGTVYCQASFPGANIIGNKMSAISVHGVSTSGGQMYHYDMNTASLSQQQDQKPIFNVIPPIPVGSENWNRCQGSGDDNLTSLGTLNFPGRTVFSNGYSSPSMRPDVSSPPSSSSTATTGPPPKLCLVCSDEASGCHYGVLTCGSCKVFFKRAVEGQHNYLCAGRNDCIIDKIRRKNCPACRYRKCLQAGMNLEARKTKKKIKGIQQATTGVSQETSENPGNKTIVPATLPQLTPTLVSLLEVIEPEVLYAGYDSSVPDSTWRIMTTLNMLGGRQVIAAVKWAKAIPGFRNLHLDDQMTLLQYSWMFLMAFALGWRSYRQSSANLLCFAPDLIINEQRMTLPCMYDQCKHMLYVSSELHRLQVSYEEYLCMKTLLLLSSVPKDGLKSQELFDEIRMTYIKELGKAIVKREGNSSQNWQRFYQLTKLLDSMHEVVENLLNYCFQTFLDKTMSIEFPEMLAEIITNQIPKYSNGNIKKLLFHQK

[4] = target: T4, Mineralocorticoid receptor (Homo sapiens) (UniProt P08235); test: Agonist activity at GAL4 DNA binding domain fused mineralocorticoid receptor ligand binding domain (unknown origin) at 0.25 to 25 uM by FRET-based assay
T4 sequence (whole entry): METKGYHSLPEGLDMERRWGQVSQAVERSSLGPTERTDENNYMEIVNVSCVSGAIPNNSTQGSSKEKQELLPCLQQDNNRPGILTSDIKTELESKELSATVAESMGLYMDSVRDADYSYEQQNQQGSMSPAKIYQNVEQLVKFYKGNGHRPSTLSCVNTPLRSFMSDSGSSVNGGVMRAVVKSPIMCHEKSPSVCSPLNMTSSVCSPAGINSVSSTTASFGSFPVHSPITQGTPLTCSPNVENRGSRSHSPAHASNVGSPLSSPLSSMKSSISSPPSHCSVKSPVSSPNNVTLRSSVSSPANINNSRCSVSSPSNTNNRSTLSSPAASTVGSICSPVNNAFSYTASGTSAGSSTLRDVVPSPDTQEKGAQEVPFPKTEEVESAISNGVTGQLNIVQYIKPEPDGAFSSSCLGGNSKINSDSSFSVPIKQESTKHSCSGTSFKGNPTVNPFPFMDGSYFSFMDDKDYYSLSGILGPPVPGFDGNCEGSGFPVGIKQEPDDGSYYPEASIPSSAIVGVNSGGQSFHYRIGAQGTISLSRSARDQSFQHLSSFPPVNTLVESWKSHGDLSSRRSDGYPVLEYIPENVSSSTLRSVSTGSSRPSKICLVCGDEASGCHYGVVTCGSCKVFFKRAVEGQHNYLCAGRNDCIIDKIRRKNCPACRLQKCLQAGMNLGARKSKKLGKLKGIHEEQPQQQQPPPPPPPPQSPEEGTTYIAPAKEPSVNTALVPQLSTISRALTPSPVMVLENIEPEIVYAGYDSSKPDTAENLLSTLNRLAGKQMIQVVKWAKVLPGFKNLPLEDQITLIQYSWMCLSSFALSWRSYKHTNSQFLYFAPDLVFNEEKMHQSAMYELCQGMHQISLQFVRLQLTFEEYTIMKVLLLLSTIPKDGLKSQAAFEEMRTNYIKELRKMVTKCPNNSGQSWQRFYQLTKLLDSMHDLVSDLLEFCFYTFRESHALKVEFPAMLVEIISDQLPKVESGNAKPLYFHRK

Mus musculus [5] = test: Memory enhancement effect in C57BL/6 mouse assessed as time spent with novel object at 5 mg/kg, po administered via gavage by novel object recognition test; assay type: functional

With `OC[C@H]1CC[C@H](c2ccc(O)cc2)CC1` the “inhibition (INH)” value (Cytochrome P450 1A2) was “Not Active”, the Time (Mus musculus [1]) was 1.08 s and the Activity [2] was “inactive”. The Activity [3] was “inactive”, the Activity [4] was “inactive” and the Time (Mus musculus [5]) was 2.36 s.
